ChEMBL document CHEMBL1140941 (J Med Chem, 2009)
Activity calls are given as the source filed them. No cut-off for these calls is given here.

Columns and labels:
[1] = target: T1, Peroxisome proliferator-activated receptor delta (Homo sapiens) (UniProt Q03181); test: Agonist activity at PPARdelta expressed in african green monkey CV1 cells co-expressing MH100 by luciferase reporter gene assay; type: functional, cell-based; settings: CV-1
T1 sequence (whole entry): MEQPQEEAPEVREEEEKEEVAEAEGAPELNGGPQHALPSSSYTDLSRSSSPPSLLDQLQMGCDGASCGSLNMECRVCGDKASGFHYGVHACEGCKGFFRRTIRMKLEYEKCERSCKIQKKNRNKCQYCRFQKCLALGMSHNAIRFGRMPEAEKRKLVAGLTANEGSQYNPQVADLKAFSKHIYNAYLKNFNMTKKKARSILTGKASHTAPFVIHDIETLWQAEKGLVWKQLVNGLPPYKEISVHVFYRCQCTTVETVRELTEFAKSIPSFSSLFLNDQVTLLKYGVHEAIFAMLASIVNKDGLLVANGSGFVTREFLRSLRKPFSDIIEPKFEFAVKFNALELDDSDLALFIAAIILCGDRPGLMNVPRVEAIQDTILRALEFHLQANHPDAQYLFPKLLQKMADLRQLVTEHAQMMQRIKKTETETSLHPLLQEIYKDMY

[2] = target: T2, Glucocorticoid receptor (Homo sapiens) (UniProt P04150); test: Agonist activity at gal-GR expressed in african green monkey CV1 cells co-expressing MH100 by luciferase reporter gene assay; type: functional, cell-based; settings: CV-1
T2 sequence (whole entry): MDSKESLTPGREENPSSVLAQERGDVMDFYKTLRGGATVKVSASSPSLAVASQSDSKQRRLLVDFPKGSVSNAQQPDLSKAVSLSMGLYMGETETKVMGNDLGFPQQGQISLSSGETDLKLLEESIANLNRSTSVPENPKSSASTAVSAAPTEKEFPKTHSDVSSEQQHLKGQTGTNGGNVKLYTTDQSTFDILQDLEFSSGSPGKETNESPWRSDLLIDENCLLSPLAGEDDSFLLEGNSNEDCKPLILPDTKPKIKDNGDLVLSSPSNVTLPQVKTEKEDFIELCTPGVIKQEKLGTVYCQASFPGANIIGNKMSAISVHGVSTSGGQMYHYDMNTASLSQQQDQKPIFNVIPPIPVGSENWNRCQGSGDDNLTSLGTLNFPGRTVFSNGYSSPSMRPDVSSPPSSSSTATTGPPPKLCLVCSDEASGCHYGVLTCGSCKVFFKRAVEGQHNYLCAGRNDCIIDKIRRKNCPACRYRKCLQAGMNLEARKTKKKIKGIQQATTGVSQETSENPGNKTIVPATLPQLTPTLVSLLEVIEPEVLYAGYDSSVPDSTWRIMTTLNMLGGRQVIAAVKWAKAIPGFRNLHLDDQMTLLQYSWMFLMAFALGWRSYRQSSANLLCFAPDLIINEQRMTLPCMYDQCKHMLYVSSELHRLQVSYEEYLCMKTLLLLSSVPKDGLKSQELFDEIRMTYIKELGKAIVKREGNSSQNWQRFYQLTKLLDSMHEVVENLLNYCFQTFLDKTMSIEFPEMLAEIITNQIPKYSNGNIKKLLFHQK

[3] = target: T1, Peroxisome proliferator-activated receptor delta (Homo sapiens); test: Agonist activity at PPARdelta expressed in african green monkey CV1 cells co-expressing MH100 up to 10 uM by luciferase reporter gene assay relative to control; type: functional, cell-based; settings: CV-1
[4] = target: Estrogen receptor beta (Homo sapiens) (UniProt Q92731); test: Agonist activity at gal-ERbeta expressed in african green monkey CV1 cells co-expressing MH100 up to 10 uM by luciferase reporter gene assay relative to control; type: functional, cell-based; settings: CV-1
[5] = target: T3, Peroxisome proliferator-activated receptor alpha (Homo sapiens) (UniProt Q07869); test: Antagonist activity at PPARalpha expressed in african green monkey CV1 cells co-expressing MH100 by luciferase reporter gene assay; type: functional, cell-based; settings: CV-1
T3 sequence (whole entry): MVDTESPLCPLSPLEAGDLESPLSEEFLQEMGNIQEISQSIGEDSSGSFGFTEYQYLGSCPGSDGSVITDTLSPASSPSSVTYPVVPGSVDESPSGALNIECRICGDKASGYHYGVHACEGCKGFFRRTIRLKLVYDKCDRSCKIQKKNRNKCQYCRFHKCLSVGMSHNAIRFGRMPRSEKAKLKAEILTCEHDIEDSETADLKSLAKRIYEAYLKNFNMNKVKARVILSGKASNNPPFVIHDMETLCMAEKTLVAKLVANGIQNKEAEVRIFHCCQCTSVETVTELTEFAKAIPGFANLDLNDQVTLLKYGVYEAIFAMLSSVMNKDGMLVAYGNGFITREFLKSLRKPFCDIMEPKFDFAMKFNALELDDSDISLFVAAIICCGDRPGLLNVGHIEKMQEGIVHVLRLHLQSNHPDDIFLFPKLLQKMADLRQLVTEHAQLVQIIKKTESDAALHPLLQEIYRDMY

[6] = Tmax in CD rat at 3 mg/kg, iv; type: ADME, organism-based; design: dose 3 mg/kg, route intravenous; settings: in vivo
Mus musculus = test: Reduction of plasma total cholesterol level in western diet-induced hyperlipidemia LDLR knockout mouse model at 3 mg/kg, po administered for 6 weeks; type: functional; design: scale not given: the % may be the effect or the level left

Sequence of Estrogen receptor beta (Homo sapiens) (Q92731 whole entry): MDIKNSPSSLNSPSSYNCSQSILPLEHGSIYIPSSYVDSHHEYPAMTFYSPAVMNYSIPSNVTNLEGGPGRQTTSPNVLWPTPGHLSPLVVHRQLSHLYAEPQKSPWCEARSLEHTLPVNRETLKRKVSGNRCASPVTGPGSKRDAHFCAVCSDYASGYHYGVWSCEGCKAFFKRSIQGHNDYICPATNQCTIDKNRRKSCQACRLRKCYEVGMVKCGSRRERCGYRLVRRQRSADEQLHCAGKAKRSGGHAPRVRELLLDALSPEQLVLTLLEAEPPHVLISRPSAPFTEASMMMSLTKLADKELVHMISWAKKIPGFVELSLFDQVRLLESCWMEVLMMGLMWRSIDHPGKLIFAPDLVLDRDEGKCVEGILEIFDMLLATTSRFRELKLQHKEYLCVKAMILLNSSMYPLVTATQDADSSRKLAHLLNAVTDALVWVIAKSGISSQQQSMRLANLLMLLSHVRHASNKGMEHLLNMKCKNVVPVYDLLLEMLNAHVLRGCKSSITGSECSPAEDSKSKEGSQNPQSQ

Activity [1]: inactive
Activity [2]: inactive
Activity [3]: inactive
Activity [4]: inactive
Activity [5]: inactive
Tmax [6]: 1.2 min
Structure (SMILES): CC(C)OC(=O)C1=CN(C(=O)c2ccc(F)c(F)c2)CC(C)(C)c2c1[nH]c1ccccc21 [TUROFEXORATE ISOPROPYL]
Activity (Mus musculus): 50%
